From ChEMBL document CHEMBL3046037, “Genetic analysis and molecular characterisation of laboratory and field mutants of Botryotinia fuckeliana (Botrytis cinerea) resistant to QoI fungicides” (Pest Manag Sci, 2012)
Values after ≈ are worked out from the molar mass of the structure shown. Active and inactive are the calls of the source. No cut-off for these calls is given here.

Legend:
[1] = system: Botrytis cinerea; test: Antifungal activity against Botryotinia fuckeliana SAS56 assessed as complete inhibition of colony growth at […]; assay type: functional, organism-based
[2] = system: Botrytis cinerea; test: Resistance index, ratio of EC50 for QoI fungicide-resistant Botryotinia fuckeliana lab isolates to EC50 for Botryotinia fuckeliana SAS56; assay type: functional
[3] = system: Botrytis cinerea; test: Antifungal activity against Botryotinia fuckeliana SAS56 assessed as inhibition of colony growth; assay type: functional, organism-based
[4] = system: Botrytis cinerea; test: Resistance index, ratio of EC50 for QoI fungicide-resistant Botryotinia fuckeliana field isolates expressing cytb G143A mutant gene to EC50 for Botryotinia fuckeliana SAS56; assay type: functional
[5] = system: Botrytis cinerea; test: Resistance index, ratio of EC50 for QoI fungicide-resistant Botryotinia fuckeliana field isolates expressing cytb G143A mutant gene to EC50 for Botryotinia fuckeliana SAS405; assay type: functional
[6] = system: Botrytis cinerea; test: Antifungal activity against QoI fungicide-resistant Botryotinia fuckeliana field isolates expressing cytb G143A mutant gene assessed as inhibition of colony growth; assay type: functional, organism-based
[7] = system: Botrytis cinerea; test: Resistance index, ratio of EC50 for QoI fungicide-resistant Botryotinia fuckeliana lab isolates to EC50 for Botryotinia fuckeliana SAS405; assay type: functional
[8] = system: Botrytis cinerea; test: Antifungal activity against QoI fungicide-resistant Botryotinia fuckeliana lab isolates assessed as inhibition of colony growth; assay type: functional, organism-based
[9] = system: Botrytis cinerea; test: Antifungal activity against Botryotinia fuckeliana SAS405 assessed as inhibition of colony growth; assay type: functional, organism-based
[10] = system: Botrytis cinerea; test: Antifungal activity against Botryotinia fuckeliana SAS56 assessed as complete inhibition of colony growth at 3 mg/ml; assay type: functional, organism-based

Structure (SMILES) | growth inhibition (GI) [1] | Ratio EC50 [2] | EC50 [3] [µg/mL] | MIC [3] [µg/mL] | Ratio EC50 [4] | Ratio EC50 [5] | EC50 [6] [µg/mL] | Ratio EC50 [7] | EC50 [8] [µg/mL] | EC50 [9] [µg/mL] | MIC [9] [µg/mL] | growth inhibition (GI) [10]
CO/N=C(\C(=O)OC)c1ccccc1CO/N=C(\C)c1cccc(C(F)(F)F)c1 | Active | >1000 | < 0.01 | 1 (≈ 2.45 µM) | >1000 | >1000 | > 100 | >1000 | > 100 | 0.01 (≈ 0.0245 µM) | 1 (≈ 2.45 µM) | 
CO/C=C(/C(=O)OC)c1ccccc1Oc1cc(Oc2ccccc2C#N)ncn1 [AZOXYSTROBIN] |  |  | 0.1 (≈ 0.248 µM) |  |  |  |  |  |  | 0.1 (≈ 0.248 µM) |  | Active
CO/N=C(/C(=O)OC)c1ccccc1COc1ccccc1C [KRESOXIM-METHYL] |  |  | 0.01 (≈ 0.0319 µM) |  |  |  |  |  |  | 0.01 (≈ 0.0319 µM) |  | Active
